Values of other authors in article PMC12042267, “Expanding the Family of Monosubstituted 15-Membered Pyridine-Based Macrocyclic Ligands for Mn(II) Complexation in the Context of MRI” (Inorganic Chemistry, 2025).
Where two headings read alike, the source gives them in different places. Marks after values point to notes of the source that are not given here.

Key:
[1] = cited from earlier work
[2] = cited from earlier work; for r1 (relaxivity): 20 MHz
[3] = Zn(II), I = 0.15 M NaCl, cited from earlier work
[4] = Cu(II), I = 0.15 M NaCl, cited from earlier work
[5] = cited from earlier work; for log KHML: 25 °C
[6] = cited from earlier work; remark: listed apart in the source
[7] = Ca(II), I = 0.15 M NaCl, cited from earlier work
[8] = Mn(II) complex, cited from earlier work; for dissociation half-life t1/2: calculated for pH 7.4
[9] = Mn(II), I = 0.15 M NaCl, 25 °C ref 29
[10] = Mn(II), I = 0.15 M NaCl, 25 °C ref 22

O.O=P([O-])([O-])CN1CCNCc2cccc(n2)CNCC1.[Mn+2] [[Mn(PC1P)(H2O)]]
kex^298 [1]: 177 ± 9 10^7 s^–1 | ΔH^‡ [1]: 14.0 ± 1.2 kJ mol^–1 | r1p298 ([2]; determined at pH 7.4 ref 20): 2.84 mM^–1 s^–1

O.O=C([O-])CN1CCNCc2cccc(n2)CNCC1.[Mn+2] [[Mn(PC1A)(H2O)]^+]
kex^298 [1]: 303 ± 19 10^7 s^–1 | ΔH^‡ [1]: 13.0 ± 1.6 kJ mol^–1 | r1p298 ([2]; determined at pH 7.4 ref 20): 2.39 mM^–1 s^–1

c1cc2nc(c1)CNCCOc1ccccc1OCCNC2 [15-pyN3O2Ph]
log KML ([3]; 25 °C ref 29): 7.70 | log KML(OH) ([3]; 25 °C ref 29): -9.62 | log KML ([4]; 25 °C ref 29): 13.97 | log KML(OH) ([4]; 25 °C ref 29): -8.95 | log KML [5, 9]: 5.62 | log KML(OH) [5, 9]: -10.50 | pMn ([5]; pH 7.4, cMn = clig = 10^–5 M ref 30): 5.04^a | log K1^H ([6]; I = 0.15 M NaCl, 25 °C ref 29): 8.53 | log K2^H ([6]; I = 0.15 M NaCl, 25 °C ref 29): 7.63 | log KML ([7]; 25 °C ref 29): 1.85

O.O=C([O-])CN1CCOCCOCCNCc2cccc(n2)C1.[Mn+2] [MnL1]
AO/ℏ [1]: 38.6 10^6 rad s^–1 | ErH [1]: 15.0 ± 0.5 kJ mol^–1 | kex^298 [1]: 0.45 ± 0.02 10^7 s^–1 | ΔH^‡ [1]: 28.1 ± 2.1 kJ mol^–1 | ΔS^‡ [1]: –23 ± 6 J mol^–1K^–1 | Δ^2 [1]: 160 ± 10 10^18 s^–2 | τrH^298 [1]: 35 ± 5 ps | τv^298 [1]: 8 ± 1 ps | r1 (relaxivity) ([2]; 25 °C, 0.47 T ref 30): 2.45 mM^–1 s^–1 | r1 (relaxivity) ([2]; 37 °C, 0.47 T ref 30): 2.08 mM^–1 s^–1

NCCN1CCN(CC(=O)O)Cc2cccc(n2)CN(CC(=O)O)CC1 [PC2A-EA]
k1 ([8]; Cu(II) transmetalation ref 22): 0.6 M^–1 s^–1 | dissociation half-life t1/2 ([8]; Cu(II) ref 22): 333 days | log KH2ML [5, 10]: 2.50 | log KML [5, 10]: 19.01 | log KHML ([5]; Mn(II), I = 0.15 M NaCl, log KMnHL in Table 5 ref 22): 6.88 | pMn ([5]; pH 7.4, cMn = clig = 10^–5 M ref 22): 9.27 | log K1^H ([6]; I = 0.15 M NaCl, 25 °C ref 22): 11.34 | log K2^H ([6]; I = 0.15 M NaCl, 25 °C ref 22): 8.93 | log K3^H ([6]; I = 0.15 M NaCl, 25 °C ref 22): 6.91 | log K4^H ([6]; I = 0.15 M NaCl, 25 °C ref 22): 1.97

O.O=C([O-])CN1CCN(Cc2ccc(-c3ccccc3)cc2)CCN(CC(=O)[O-])Cc2cccc(n2)C1.[Mn+2] [[Mn(PC2A-BP)(H2O)]]
kex^298 ([1]; Table 7, footnote h ref 29): 6.3 ± 0.2 10^7 s^–1 | ΔH^‡ ([1]; Table 7, footnote h ref 29): 35.7 ± 0.1 kJ mol^–1 | r1p298 ([2]; determined at pH 7.4 ref 29): 4.96 mM^–1 s^–1 | r1p298 ([2]; measured in the presence of HSA ref 55): 35.7 mM^–1 s^–1

O.O.[Mn+2].c1cc2nc(c1)CNCCNCCNCCNC2 [Mn(15-pyN5)]
kex^298 [1]: 6.9 ± 0.7 10^7 s^–1 | ΔH^‡ [1]: 37.7 ± 4 kJ mol^–1 | r1 (relaxivity) ([2]; 25 °C, 0.47 T ref 28): 3.56 mM^–1 s^–1

O=C(O)CN1CCNCc2cccc(n2)CN(CC(=O)O)CC1 [3,6-PC2A]
log KHML ([3]; 25 °C ref 21): 2.36 | log KML ([3]; 25 °C ref 21): 20.37 | k1 ([8]; Cu(II) transmetalation ref 21): 70 ± 1 M^–1 s^–1 | k2 ([8]; Cu(II) transmetalation ref 21): (1.5 ± 0.4) × 10^5 M^–2 s^–1 | k3 ([8]; Cu(II) transmetalation ref 21): (2.6 ± 0.7) × 10^–2 M^–1 s^–1 | dissociation half-life t1/2 ([8]; Cu(II) ref 21): 2.63 days | log KHML ([4]; 25 °C ref 21): 2.37 | log KML ([4]; 25 °C ref 21): 24.09 | log KML ([5]; Mn(II), I = 0.15 M NaCl, 25 °C ref 21): 15.53 | log KHML ([5]; Mn(II), I = 0.15 M NaCl, log KMnHL in Table 5 ref 21): 3.06 | pMn ([5]; pH 7.4, cMn = clig = 10^–5 M ref 21): 8.09 | log K1^H ([6]; 1.0 M NaCl ref 21): 10.31 | log K2^H ([6]; 1.0 M NaCl ref 21): 8.59 | log K3^H ([6]; 1.0 M NaCl ref 21): 3.92 | log K4^H ([6]; 1.0 M NaCl ref 21): 1.56 | log K1^H ([6]; I = 0.15 M NaCl, 25 °C ref 21): 10.72 | log K2^H ([6]; I = 0.15 M NaCl, 25 °C ref 21): 8.37 | log K3^H ([6]; I = 0.15 M NaCl, 25 °C ref 21): 3.81 | log K4^H ([6]; I = 0.15 M NaCl, 25 °C ref 21): 1.26 | log KHML ([7]; 25 °C ref 21): 5.27 | log KML ([7]; 25 °C ref 21): 9.57
